Reference: US20160022636A1, “PHYSIOLOGICAL LIGANDS FOR GPR139” (JANSSEN PHARMACEUTICA NV, priority 2013, published 2016)
“And” between values parts separate entries of the source, which are not always exact repeats. Identical values can stand only once.

What follows are molecules tested against T1, GPR139 (Homo sapiens, UniProt Q6DWJ6) (assay: calcium mobilization assay (FLIPR), GPR139 transiently expressed in HEK293 cells). Conditions: HEK293, read-out: % L-phenylalanine at 300 μM (average).
T1 sequence (Q6DWJ6 1-353): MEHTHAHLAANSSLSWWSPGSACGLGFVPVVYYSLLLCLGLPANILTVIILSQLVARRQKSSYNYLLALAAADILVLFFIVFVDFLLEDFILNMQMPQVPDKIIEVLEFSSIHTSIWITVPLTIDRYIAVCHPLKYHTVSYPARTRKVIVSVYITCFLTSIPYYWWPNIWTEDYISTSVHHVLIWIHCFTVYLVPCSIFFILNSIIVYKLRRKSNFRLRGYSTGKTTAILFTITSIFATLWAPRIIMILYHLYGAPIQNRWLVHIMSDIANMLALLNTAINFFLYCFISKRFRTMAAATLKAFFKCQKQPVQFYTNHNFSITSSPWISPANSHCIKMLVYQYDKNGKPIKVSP
Type: cell-based
Design: expressed in transfected cells; host or cells: HEK293
From the text: For these experiments human GPR139 was transiently expressed in HEK293 cells and calcium mobilization was stimulated using L-Trp, L-Phe or their derivatives.

Going from `N[C@H](Cc1ccc(Br)cc1)C(=O)O` [4-Bromo-D-phenylalanine] to `N[C@@H](Cc1ccc(Br)cc1)C(=O)O` [4-Bromo-L-phenylalanine], the activation at 300 µM rises from 139% to 153%.

`N[C@@H](Cc1ccc([N+](=O)[O-])cc1[N+](=O)[O-])C(=O)O` [2,4-Dinitro-L-phenylalanine] showed an activation at 300 µM of 95%.

Same assay, conditions: HEK293; calcium mobilization at 300 μM as percentage of that observed for L-phenylalanine; read-out: % L-phenylalanine at 300 μM (average)

Going from `N[C@@H](Cc1cccc(F)c1)C(=O)O` [3-Fluoro-L-phenylalanine] to `N[C@H](Cc1cccc(F)c1)C(=O)O` [3-Fluoro-D-phenylalanine], the activation at 300 µM falls from 114% to 94%.

First: Cc1ccc(C[C@H](N)C(=O)O)c(C)c1 [2,4-Dimethyl-L-phenylalanine]
Second: Cc1ccc(C[C@@H](N)C(=O)O)c(C)c1 [2,4-Dimethyl-D-phenylalanine]
The activation at 300 µM of the first is higher: 113% for the first, 101% for the second.

Going from `N[C@@H](Cc1cccc(Cl)c1)C(=O)O` [3-Chloro-L-phenylalanine] to `N[C@H](Cc1cccc(Cl)c1)C(=O)O` [3-Chloro-D-phenylalanine], the activation at 300 µM rises from 145% to 147%.

Going from `N[C@@H](Cc1ccc(Cl)cc1)C(=O)O` [4-Chloro-L-phenylalanine] to `N[C@H](Cc1ccc(Cl)cc1)C(=O)O` [4-Chloro-D-phenylalanine], the activation at 300 µM falls from 146% to 110%.

First: COc1ccc(C[C@H](N)C(=O)O)cc1 [4-Methoxy-L-phenylalanine]
Second: Cc1ccc(C[C@H](N)C(=O)O)cc1 [4-Methyl-L-phenylalanine]
The activation at 300 µM of the first is lower: 128% for the first, 149% for the second.

Compared with `N[C@H](C(=O)O)C(c1ccccc1)c1ccccc1` [3,3-Diphenyl-L-alanine], `N[C@H](CCCc1ccccc1)C(=O)O` [D-2-Amino-5-phenyl-pentanoic acid] is higher in activation at 300 µM: 117% for the first, 129% for the second.

`N[C@H](Cc1ccc(Cl)c(Cl)c1)C(=O)O` [3,4-Dichloro-D-phenylalanine] and `N[C@@H](Cc1ccc(Cl)c(Cl)c1)C(=O)O` [3,4-Dichloro-L-phenylalanine] are the same in activation at 300 µM: 149% for the first, 149% for the second.

Going from `N[C@H](Cc1cc(F)cc(F)c1)C(=O)O` [3,5-Difluoro-D-phenylalanine] to `N[C@H](Cc1ccc(F)c(F)c1)C(=O)O` [3,4-Difluoro-D-phenylalanine], the activation at 300 µM rises from 102% to 121%.

First: N[C@@H](Cc1ccccc1[N+](=O)[O-])C(=O)O [2-Nitro-L-phenylalanine]
Second: N[C@@H](Cc1ccccc1F)C(=O)O [2-Fluoro-L-phenylalanine]
The activation at 300 µM of the first is higher: 150% for the first, 119% for the second.

First: N[C@@H](Cc1ccc(C(F)(F)F)cc1)C(=O)O [4-Trifluoromethyl-L-phenylalanine]
Second: N[C@@H](Cc1cccc(C(F)(F)F)c1)C(=O)O [3-Trifluoromethyl-L-phenylalanine]
The activation at 300 µM of the first is higher: 150% for the first, 133% for the second.

First: N[C@@H](Cc1ccc(Cl)cc1Cl)C(=O)O [2,4-Dichloro-L-phenylalanine]
Second: N[C@H](Cc1ccc(Cl)cc1Cl)C(=O)O [2,4-Dichloro-D-phenylalanine]
The activation at 300 µM of the first is lower: 122% for the first, 135% for the second.

First: Cc1cccc(C[C@@H](N)C(=O)O)c1 [3-Methyl-D-phenylalanine]
Second: Cc1cccc(C[C@H](N)C(=O)O)c1 [3-Methyl-L-phenylalanine]
The activation at 300 µM of the first is higher: 150% for the first, 147% for the second.

Going from `N[C@H](Cc1cccc(Br)c1)C(=O)O` [3-Bromo-D-phenylalanine] to `N[C@@H](Cc1cccc(Br)c1)C(=O)O` [3-Bromo-L-phenylalanine], the activation at 300 µM falls from 172% to 167%.

Going from `N[C@H](Cc1ccc(I)cc1)C(=O)O` [4-Iodo-D-phenylalanine] to `N[C@@H](Cc1ccc(I)cc1)C(=O)O` [4-Iodo-L-phenylalanine], the activation at 300 µM falls from 125% to 116%.

Compared with `N[C@H](Cc1c(F)c(F)c(F)c(F)c1F)C(=O)O` [2,3,4,5,6-Pentafluoro-D-phenylalanine], `N[C@@H](Cc1ccc(F)cc1)C(=O)O` [4-Fluoro-L-phenylalanine] is lower in activation at 300 µM: 145% for the first, 132% for the second.

First: Cc1ccccc1C[C@@H](N)C(=O)O [2-Methyl-D-phenylalanine]
Second: Cc1ccccc1C[C@H](N)C(=O)O [2-Methyl-L-phenylalanine]
The activation at 300 µM of the first is lower: 109% for the first, 134% for the second.

First: C[C@](N)(Cc1ccc(F)cc1)C(=O)O [α-methyl-4-Fluoro-L-phenylalanine]
Second: N[C@H](Cc1ccc(F)cc1)C(=O)O [4-Fluoro-D-phenylalanine]
The activation at 300 µM of the first is higher: 125% for the first, 91% for the second.

First: N#Cc1cccc(C[C@H](N)C(=O)O)c1 [3-Cyano-L-phenylalanine]
Second: N#Cc1cccc(C[C@@H](N)C(=O)O)c1 [3-Cyano-D-phenylalanine]
The activation at 300 µM of the first is higher: 115% for the first, 93% for the second.

Compared with `N[C@@H](Cc1cccc([N+](=O)[O-])c1)C(=O)O` [3-Nitro-L-phenylalanine], `N[C@H](Cc1cccc([N+](=O)[O-])c1)C(=O)O` [3-Nitro-D-Phenylalanine] is higher in activation at 300 µM: 131% for the first, 164% for the second.

Compared with `CC(C)(C)c1ccc(C[C@H](N)C(=O)O)cc1` [4-tert-Butyl-L-phenylalanine], `Cc1ccc(C[C@@H](N)C(=O)O)cc1` [4-Methyl-D-phenylalanine] is lower in activation at 300 µM: 115% for the first, 102% for the second.

Compared with `N[C@@H](Cc1ccccc1C(F)(F)F)C(=O)O` [2-Trifluoromethyl-L-phenylalanine], `N[C@H](Cc1ccccc1Br)C(=O)O` [2-Bromo-D-phenylalanine] is higher in activation at 300 µM: 110% for the first, 135% for the second.

First: CC(C)(C)OC(=O)N1Cc2ccccc2C[C@@H]1C(=O)O [(3R)-2-tert-butoxycarbonyl-3,4-dihydro-1H-isoquinoline-3-carboxylic acid]
Second: N[C@@H](Cc1ccccc1Br)C(=O)O [2-Bromo-L-phenylalanine]
The activation at 300 µM of the first is lower: 155% for the first, 168% for the second.

In the case of `N[C@H](Cc1ccc([N+](=O)[O-])cc1)C(=O)O` [4-Nitro-D-phenylalanine], the activation at 300 µM is reported as 111%.

Same assay, conditions: calcium mobilization at 300 μM as percentage of that observed for L-phenylalanine

First: O=C(O)[C@@H]1Cc2c([nH]c3ccccc23)CN1 [L-1,2,3,4-tetrahydronorharman-3-carboxylic acid]
Second: N[C@H](CCc1ccccc1)C(=O)O [d-Homo-phenylalanine]
The “% L-phenylalanine at 300 μM (average)” value of the first is higher: 151% for the first, 105% for the second.

Compared with `N[C@H](Cc1ccc(Br)s1)C(=O)O` [2-(5-bromothienyl)-D-alanine], `N[C@@H](Cc1ccc(Br)s1)C(=O)O` [2-(5-bromothienyl)-L-alanine] is lower in “% L-phenylalanine at 300 μM (average)” value: 154% for the first, 151% for the second.

The molecules below were run on GO2Q alone (assay: GTPγS binding assay, control membranes from COS7 cells expressing GO2Q alone (Ct-GO2Q)). Conditions: 1 mM final concentration; single wells of triplicate; COS7 membranes with GO2Q alone (control panel).
Type: biochemical
From the text: Human (A and B) or mouse (C and D) GPR139 were co-transfected with chimeric G-protein GO2Q into COS7 cells. Cell membranes from transfected cells were used in GTPγS binding studies using various ligands at different concentrations to stimulate GPR139. Membranes from COS7 cells transfected by GO2Q were used as the controls (E and F).
(§1) In order identify the ligands for GPR139 two improvements in the detection assay were made to allow for the ligands to be detected. First, we chose to use a GTPγS binding assay instead of using live cultured cells. The GTPγS binding assay is a cell free system that uses the cell membrane of the cell(s) of interest rather than the live cell(s). One advantage of this assay is that potential ligands present in the cell culture media are washed away when the cell membrane is prepared. This reduces the basal level of signal and increase the chance of detecting receptor ligands when assessing compounds that activate the receptor. Second, a GO2Q chimeric G-protein was created to be co-expressed with GPR139 in order to increase the signal-to-noise ratio in the GTPγS binding assay. Historically, the Gi, Go coupled GPCRs offer much greater signal-to-noise ratio in GTPγS binding studies. For Gs and Gq coupled GPCRs, although ligand-stimulated specific signals can be detected in a GTPγS binding assay, the signal-to-noise ratios are often very small. To address this a chimeric GO2-Gq chimeric G-protein, GO2Q, with the N-terminus from Go2 protein and the C-terminus from Gq protein.
(§2) To test for compounds that activate GPR139, different amino acids and their derivatives (Table 2) were tested as ligands in the GTPγS binding assay using cell membranes from COS7 cells co-expressing GPR139 and GO2Q. Cell membrane from COS7 cells expressing GO2Q alone or co-expressing other GPCRs were also tested in GTPγS binding assay in parallel as controls. Each compound was tested in triplicate.

`N[C@@H](CCC(=O)O)C(=O)O` [Glu] was tested, and the “Activation levels (GTPγS binding signal), Ct-GO2Q” value (“Activation levels … Ct-GO2Q” below) was 2242 and 2310 and 2311.
With `CC(C)C[C@H](N)C(=O)O` [Leu] the “Activation levels … Ct-GO2Q” value was 2194 and 2213 and 2167.
`O=C(O)[C@@H]1C[C@@H](O)CN1` [HO-Pro] was tested, and the “Activation levels … Ct-GO2Q” value was 2166 and 2152 and 2189.
`NC(=O)CC[C@H](N)C(=O)O` [Gln] was tested, and the “Activation levels … Ct-GO2Q” value was 2181 and 2327 and 2336.
For `NCCc1ccc(O)c(O)c1` [DA], the “Activation levels … Ct-GO2Q” value was 2250 and 2213 and 2319.
In the case of `CNCC(O)c1ccc(O)c(O)c1` (centres unmarked) [Adrenaline], the “Activation levels … Ct-GO2Q” value is reported as 2240 and 2117 and 2045.
For `CSCC[C@H](N)C(=O)O` [Met], the “Activation levels … Ct-GO2Q” value was 2173 and 2307 and 2276.
`NCCc1c[nH]cn1` [HA, histamine] was tested, and the “Activation levels … Ct-GO2Q” value was 2186 and 2204 and 2199.

What follows are molecules tested against T1, GPR139 (assay: GTPγS binding assay, membranes from COS7 cells co-expressing GPR139 and GO2Q, single concentration screen). Conditions: 1 mM final concentration; single wells of triplicate; COS7 membranes co-expressing GPR139 and GO2Q.
Type: biochemical
Design: expressed in transfected cells; host or cells: COS7
Method: as §1, §2

`N[C@@H](CCC(=O)O)C(=O)O` [Glu] was tested, and the “Activation levels of GPR139 (GTPγS binding signal), GPR139-GO2Q” value (“Activation levels of GPR139” below) was 2847 and 2837 and 2841.
For `CC(C)C[C@H](N)C(=O)O` [Leu], the “Activation levels of GPR139” value was 2621 and 2544 and 2437.
In the case of `O=C(O)[C@@H]1C[C@@H](O)CN1` [HO-Pro], the “Activation levels of GPR139” value is reported as 2825 and 2797 and 3109.
`NC(=O)CC[C@H](N)C(=O)O` [Gln] was tested, and the “Activation levels of GPR139” value was 2583 and 2525 and 2766.
With `NCCc1ccc(O)c(O)c1` [DA] the “Activation levels of GPR139” value was 2688 and 2825 and 2708.
In the case of `CNCC(O)c1ccc(O)c(O)c1` (centres unmarked) [Adrenaline], the “Activation levels of GPR139” value is reported as 2721 and 2624 and 2670.
`CSCC[C@H](N)C(=O)O` [Met] was tested, and the “Activation levels of GPR139” value was 2657 and 2829 and 2802.
In the case of `NCCc1c[nH]cn1` [HA, histamine], the “Activation levels of GPR139” value is reported as 2737 and 2863 and 2899.
